From patent publication US20260184708A1, “PYRIDAZINONES AND METHODS OF USE THEREOF” (GFB (ABC), LLC, priority 2017, published 2026)
Read-outs that look alike come from different tables or passages of the source.

Target: T1, TRPC5 (Homo sapiens, UniProt Q9UL62)
T1 construct: expressed in transfected cells; host or cells: HEK 293
T1 sequence (Q9UL62 1-973): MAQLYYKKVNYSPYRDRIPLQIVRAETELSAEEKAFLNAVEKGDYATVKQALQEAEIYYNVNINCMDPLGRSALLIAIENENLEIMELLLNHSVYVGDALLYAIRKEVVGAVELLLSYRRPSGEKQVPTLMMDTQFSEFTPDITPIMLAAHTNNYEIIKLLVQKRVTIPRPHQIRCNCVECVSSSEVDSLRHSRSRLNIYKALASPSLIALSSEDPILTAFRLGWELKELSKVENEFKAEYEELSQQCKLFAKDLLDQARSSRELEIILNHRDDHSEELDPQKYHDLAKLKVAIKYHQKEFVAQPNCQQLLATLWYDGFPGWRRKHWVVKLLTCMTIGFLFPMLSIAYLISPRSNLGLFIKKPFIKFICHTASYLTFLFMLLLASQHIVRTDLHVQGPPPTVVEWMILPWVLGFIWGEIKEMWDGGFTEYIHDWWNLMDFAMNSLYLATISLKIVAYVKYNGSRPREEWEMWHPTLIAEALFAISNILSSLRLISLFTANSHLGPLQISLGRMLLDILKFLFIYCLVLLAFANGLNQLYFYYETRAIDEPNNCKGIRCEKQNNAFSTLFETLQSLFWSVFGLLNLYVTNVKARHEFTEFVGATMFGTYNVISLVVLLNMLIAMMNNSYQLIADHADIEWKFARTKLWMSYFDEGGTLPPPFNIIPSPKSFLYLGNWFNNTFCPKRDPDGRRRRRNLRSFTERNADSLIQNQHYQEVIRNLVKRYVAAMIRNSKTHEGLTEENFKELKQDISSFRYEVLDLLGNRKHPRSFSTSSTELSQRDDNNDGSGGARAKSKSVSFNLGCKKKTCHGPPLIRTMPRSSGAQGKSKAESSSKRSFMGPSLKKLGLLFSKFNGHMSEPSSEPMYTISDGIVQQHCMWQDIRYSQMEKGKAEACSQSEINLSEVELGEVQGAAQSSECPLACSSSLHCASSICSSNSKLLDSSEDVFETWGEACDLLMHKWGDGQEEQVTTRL
Test: TRPC5 automated patch clamp assay (Qpatch), current block after rosiglitazone stimulation
Format: cell-based
Details: Table 5, HEK293 cells overexpressing TRPC5, rosiglitazone stimulation
Experimental: HEK 293 cells expressing human TRPC5 were harvested, re-suspended in serum free medium, and added to the automated platform and used within 2-3 hours. Internal and external physiological solutions were freshly prepared prior to the assay. The external solution contained: 145 mM NaCl, 4 mM KCl, 2 mM CaCl2), 1 mM MgCl2, 10 mM HEPES, 10 mM glucose, pH 7.4 with NaOH and 300 mOsm/L. The internal solution contained 120 mM L-aspartic acid, 120 mM CsOH·H2O, 20 mM CsCl, 2 mM MgCl2, 8.8 mM CaCl2), 10 mM EGTA, 10 mM HEPES, 10 mM Glucose, 0.1 mM GTP and 2 mM Na2ATP; pH 7.2 with CsOH and 290 mOsm/L. The free internal Ca2+ concentration was buffered to 1 μM.
The automated electrophysiological platform QPatch 16 from Sophion (Denmark) was used to carry out the compounds profiling. The series resistance and quality of seals were continuously monitored during the experiments. Data was analyzed using Sophion QPatch assay software 5.6 (Odense). IC50 values were calculated using a least squares regression algorithm (Hill equation).
To monitor the ion currents, a voltage ramp from −100 mV to +100 mV, over 300 ms, was applied every 10 seconds, from a holding potential of −60 mV.
After recording for a minimum of 60 seconds control period, Rosiglitazone (30 uM), was applied to activate the channel.

[1] = 80 mV, read-out: TRPC5_QP_ XC50_80
[2] = 100 mV, read-out: TRPC5_QP_ XC50_100

Row | SMILES | IC50 [1] | IC50 [2]
1 | C=Cc1n[nH]c(=O)c(N2CCN(Cc3ccc(F)cc3C)CC2)c1Cl | 10 to 500 µM | 10 to 500 µM
2 | Cc1cc(N2CCN(Cc3ccc(F)cc3C)C(=O)C2)c(=O)[nH]n1 | 10 to 500 µM | 10 to 500 µM
3 | Cc1cc(F)ccc1CN1CCN(c2c(Cl)c(-c3ccccc3)n[nH]c2=O)CC1 | 10 to 500 µM | 10 to 500 µM
4 | Cc1cc(F)ccc1CN1CCN(c2c(Cl)c(Br)n[nH]c2=O)CC1 | 10 to 500 µM | 10 to 500 µM
5 | Cc1n[nH]c(=O)c(N2CCN(Cc3ccc(F)cc3C(F)(F)F)C(=O)C2)c1Cl | 10 to 500 µM | 10 to 500 µM
6 | CCn1nc(CN2CCN(c3cn[nH]c(=O)c3Cl)CC2)c2ccccc21 | 10 to 500 µM | 10 to 500 µM
7 | O=C1CN(c2cn[nH]c(=O)c2Cl)CCN1Cc1ccc(OC(F)(F)F)cc1F | 5 to 10 µM | 5 to 10 µM
8 | O=C1CN(c2cn[nH]c(=O)c2Cl)CCN1Cc1cccc2cn[nH]c12 | 10 to 500 µM | 10 to 500 µM
9 | Cc1ccccc1CN1CCN(c2c(Cl)cn[nH]c2=O)CC1=O | 10 to 500 µM | 10 to 500 µM
10 | O=C1CN(c2c(Cl)cn[nH]c2=O)CCN1Cc1ccc(OC(F)(F)F)cc1 | 10 to 500 µM | 10 to 500 µM
11 | O=C1CN(c2cn[nH]c(=O)c2Cl)CCN1Cc1cccc2[nH]ncc12 | 10 to 500 µM | 10 to 500 µM
12 | Cc1cc(F)ccc1CN1CCN(c2c(Br)n[nH]c(=O)c2Cl)CC1=O | 10 to 500 µM | 10 to 500 µM
13 | Cc1cc(F)ccc1CN1CCN(c2cn[nH]c(=O)c2C(F)(F)F)CC1=O | 5 to 10 µM | 5 to 10 µM
14 | O=C1CN(c2c(Cl)cn[nH]c2=O)CCN1Cc1cccc(C(F)(F)F)c1 | 10 to 500 µM | 10 to 500 µM
15 | Cc1cc(F)ccc1CN1CCN(c2c(C)n[nH]c(=O)c2Cl)CC1=O | 10 to 500 µM | 10 to 500 µM
16 | Cc1ccccc1CN1CCN(c2ccn[nH]c2=O)CC1=O | 10 to 500 µM | 10 to 500 µM
17 | O=C1CN(c2c(Cl)cn[nH]c2=O)CCN1Cc1cccc(OC(F)(F)F)c1 | 10 to 500 µM | 10 to 500 µM
18 | O=C1N(Cc2ccccc2C(F)(F)F)CCC12CCN(c1cn[nH]c(=O)c1Cl)CC2 | 10 to 500 µM | 10 to 500 µM

The remaining lines, values ahead:

Row | IC50 [1] | IC50 [2] | SMILES
19 | 1 to 5 µM |  | Cc1cc(F)ccc1CN1CCN(c2cc(-c3ccccc3)n[nH]c2=O)CC1
20 | 5 to 10 µM | 5 to 10 µM | Cc1n[nH]c(=O)c(N2CCN(Cc3ccccc3C(F)(F)F)C(=O)C2)c1Cl
21 | 5 to 10 µM | 5 to 10 µM | Cc1n[nH]c(=O)c(N2CCN(Cc3ccccc3OC(F)(F)F)C(=O)C2)c1Cl
22 | 1 to 5 µM | 1 to 5 µM | Cc1ccccc1N1CCN(c2cn[nH]c(=O)c2Cl)CC1
23 | 1 to 5 µM | 5 to 10 µM | COc1cc(C(F)(F)F)ccc1CN1CCN(c2cn[nH]c(=O)c2Cl)CC1=O
24 | 1 to 5 µM | 1 to 5 µM | O=C1CN(c2cn[nH]c(=O)c2Cl)CCN1Cc1ccc(OC(F)(F)F)cc1
25 | 5 to 10 µM | 10 to 500 µM | Cn1nc(CN2CCN(c3cn[nH]c(=O)c3Cl)CC2)c2ccccc21
26 | 1 to 5 µM | 1 to 5 µM | O=c1[nH]ncc(N2CCN(Cc3ccc(F)cc3C(F)(F)F)CC2)c1Cl
27 | 1e-05 to 1 µM | 1e-05 to 1 µM | O=C1CN(c2cn[nH]c(=O)c2Cl)CCN1Cc1ccc(F)cc1C(F)(F)F
28 | 1 to 5 µM | 1 to 5 µM | Cc1ccccc1CN1CC2(CCN(c3cn[nH]c(=O)c3Cl)CC2)C1
29 | 1 to 5 µM | 10 to 500 µM | Cc1cc(C(F)(F)F)ccc1CN1CCN(c2cn[nH]c(=O)c2Cl)CC1=O
30 | 1 to 5 µM | 5 to 10 µM | O=C1CN(c2c(Br)n[nH]c(=O)c2Cl)CCN1Cc1ccccc1C(F)(F)F
31 | 1 to 5 µM | 1 to 5 µM | O=C1CN(c2cn[nH]c(=O)c2C(F)(F)F)CCN1Cc1ccccc1C(F)(F)F
